# ChEMBL document CHEMBL1127439, “Structure-activity relationship studies of central nervous system agents. 13. 4-[3-(Benzotriazol-1-yl)propyl]-1-(2-methoxyphenyl)piperazine, a new putative 5-HT1A receptor antagonist, and its analogs” (J Med Chem, 1994)
# pKi: −log10 of the molar value.
# Columns and labels:
# Mus musculus [1] = experiment: Effect on 8-OH-DPAT-induced hypothermia in mice (5 mg/kg) at intraperitoneal dosage of 1 mg/kg of compound after 45 mins; format: functional
# Mus musculus [2] = experiment: Effect on body temperature in mice at intraperitoneal dosage of 8 mg/kg, (compound administered 30 min before the test) after 45 min; format: functional
# Mus musculus [3] = experiment: Effect on 8-OH-DPAT-induced hypothermia in mice (5 mg/kg) at intraperitoneal dosage of 8 mg/kg of compound after 30 mins; format: functional
# Mus musculus [4] = experiment: Effect on 8-OH-DPAT-induced hypothermia in mice (5 mg/kg) at intraperitoneal dosage of 8 mg/kg of compound after 60 mins; format: functional
# Mus musculus [5] = experiment: Effect on 8-OH-DPAT-induced hypothermia in mice (5 mg/kg) at intraperitoneal dosage of 2 mg/kg of compound after 30 mins; format: functional
# Rattus norvegicus [6] = experiment: Tested for the effect on 8-OH-DPAT-induced behavior in reserpine pretreated rat against flat body posture at dosage of 16 mg/kg; format: functional
# Rattus norvegicus [7] = experiment: Tested for the effect on 8-OH-DPAT-induced behavior in reserpine pretreated rat against forepaw treading at dosage of 4 mg/kg; format: functional
# Rattus norvegicus [8] = experiment: Tested for the induction of lower lip retraction (LLR) by the investigated compounds in rat at dosage of 2 mg/kg; format: functional
# Mus musculus [9] = experiment: Effect on 8-OH-DPAT-induced hypothermia in mice (5 mg/kg) at intraperitoneal dosage of 4 mg/kg of compound after 45 mins; format: functional
# [10] = biological target: T1, 5-hydroxytryptamine receptor 1A (Rattus norvegicus, UniProt P19327); experiment: Tested in vitro for receptor binding affinity against 5-hydroxytryptamine 1A receptor using radioligand [3H]8-OH-DPAT
# T1 sequence (P19327 whole entry): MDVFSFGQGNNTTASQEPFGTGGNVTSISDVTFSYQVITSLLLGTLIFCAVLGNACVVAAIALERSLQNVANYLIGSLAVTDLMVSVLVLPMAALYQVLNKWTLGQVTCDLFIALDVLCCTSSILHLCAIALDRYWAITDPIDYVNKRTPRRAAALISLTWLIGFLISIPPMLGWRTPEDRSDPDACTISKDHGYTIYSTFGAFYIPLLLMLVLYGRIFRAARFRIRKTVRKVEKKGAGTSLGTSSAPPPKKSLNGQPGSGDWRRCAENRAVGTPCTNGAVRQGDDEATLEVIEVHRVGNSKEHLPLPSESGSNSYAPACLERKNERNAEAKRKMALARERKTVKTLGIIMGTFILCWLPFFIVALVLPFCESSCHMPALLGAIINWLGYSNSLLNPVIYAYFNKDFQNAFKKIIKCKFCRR
# Mus musculus [11] = experiment: Effect on body temperature in mice at intraperitoneal dosage of 2 mg/kg, (compound administered 30 min before the test) after 75 min; format: functional
# Mus musculus [12] = experiment: Effect on body temperature in mice at intraperitoneal dosage of 2 mg/kg, (compound administered 30 min before the test) after 45 min; format: functional
# Mus musculus [13] = experiment: Effect on body temperature in mice at intraperitoneal dosage of 1 mg/kg, (compound administered 30 min before the test) after 60 min; format: functional
# Rattus norvegicus [14] = experiment: Tested for the effect on 8-OH-DPAT-induced lower lip retraction (LLR) in rat at dosage of 4 mg/kg; format: functional
# Mus musculus [15] = experiment: Effect on 8-OH-DPAT-induced hypothermia in mice (5 mg/kg) at intraperitoneal dosage of 4 mg/kg of compound after 15 mins; format: functional
# Mus musculus [16] = experiment: Effect on 8-OH-DPAT-induced hypothermia in mice (5 mg/kg) at intraperitoneal dosage of 1 mg/kg of compound after 15 mins; format: functional
# Mus musculus [17] = experiment: Effect on 8-OH-DPAT-induced hypothermia in mice (5 mg/kg) at intraperitoneal dosage of 8 mg/kg of compound after 45 mins; format: functional
# Mus musculus [18] = experiment: Effect on body temperature in mice at intraperitoneal dosage of 8 mg/kg, (compound administered 30 min before the test) after 60 min; format: functional
# Mus musculus [19] = experiment: Effect on body temperature in mice at intraperitoneal dosage of 4 mg/kg, (compound administered 30 min before the test) after 90 min; format: functional
# Rattus norvegicus [20] = experiment: Tested for the effect on 8-OH-DPAT-induced behavior in reserpine pretreated rat against flat body posture at dosage of 2 mg/kg; format: functional
# Mus musculus [21] = experiment: Effect on 8-OH-DPAT-induced hypothermia in mice (5 mg/kg) at intraperitoneal dosage of 1 mg/kg of compound after 30 mins; format: functional
# Mus musculus [22] = experiment: Effect on body temperature in mice at intraperitoneal dosage of 4 mg/kg, (compound administered 30 min before the test) after 30 min; format: functional
# Mus musculus [23] = experiment: Effect on body temperature in mice at intraperitoneal dosage of 4 mg/kg, (compound administered 30 min before the test) after 45 min; format: functional
# Rattus norvegicus [24] = organism: Rattus norvegicus; experiment: Selectivity is the ratio between Ki values of 5-HT2 and 5-HT1A
# Mus musculus [25] = experiment: Effect on body temperature in mice at intraperitoneal dosage of 4 mg/kg, (compound administered 30 min before the test) after 60 min; format: functional
# Rattus norvegicus [26] = experiment: Tested for the effect on 8-OH-DPAT-induced lower lip retraction (LLR) in rat at dosage of 16 mg/kg; format: functional
# Mus musculus [27] = experiment: Effect on body temperature in mice at intraperitoneal dosage of 1 mg/kg, (compound administered 30 min before the test) after 30 min; format: functional
# Rattus norvegicus [28] = experiment: Tested for the effect on 8-OH-DPAT-induced behavior in reserpine pretreated rat against forepaw treading at dosage of 2 mg/kg; format: functional
# Mus musculus [29] = experiment: Effect on body temperature in mice at intraperitoneal dosage of 2 mg/kg, (compound administered 30 min before the test) after 90 min; format: functional
# Mus musculus [30] = experiment: Effect on 8-OH-DPAT-induced hypothermia in mice (5 mg/kg) at intraperitoneal dosage of 1 mg/kg of compound after 60 mins; format: functional
# Mus musculus [31] = experiment: Effect on body temperature in mice at intraperitoneal dosage of 8 mg/kg, (compound administered 30 min before the test) after 30 min; format: functional
# Mus musculus [32] = experiment: Effect on body temperature in mice at intraperitoneal dosage of 8 mg/kg, (compound administered 30 min before the test) after 90 min; format: functional
# Rattus norvegicus [33] = experiment: Tested for the effect on 8-OH-DPAT-induced lower lip retraction (LLR) in rat at dosage of 8 mg/kg; format: functional
# Rattus norvegicus [34] = experiment: Tested for the effect on 8-OH-DPAT-induced behavior in reserpine pretreated rat against forepaw treading at dosage of 8 mg/kg; format: functional
# Mus musculus [35] = experiment: Effect on 8-OH-DPAT-induced hypothermia in mice (5 mg/kg) at intraperitoneal dosage of 2 mg/kg of compound after 15 mins; format: functional
# Mus musculus [36] = experiment: Effect on 8-OH-DPAT-induced hypothermia in mice (5 mg/kg) at intraperitoneal dosage of 2 mg/kg of compound after 60 mins; format: functional
# [37] = biological target: Serotonin 2 (5-HT2) receptor (Rattus norvegicus, UniProt P30994+P08909+P14842); experiment: Tested in vitro for receptor binding affinity against 5-hydroxytryptamine 2 receptor using radioligand [3H]ketanserin; format: protein assay
# Rattus norvegicus [38] = experiment: Tested for the effect on 8-OH-DPAT-induced lower lip retraction (LLR) in rat at dosage of 2 mg/kg; format: functional
# Mus musculus [39] = experiment: Effect on body temperature in mice at intraperitoneal dosage of 1 mg/kg, (compound administered 30 min before the test) after 75 min; format: functional
structure (smiles),measurement,setting,value
COc1ccccc1N1CCN(CCCn2nnc3ccccc32)CC1,Delta t,Mus musculus [1],0.6 °C
same,Delta t,Mus musculus [2],0.2 °C
same,Delta t,Mus musculus [3],0.4 °C
same,Delta t,Mus musculus [4],0.6 °C
same,Delta t,Mus musculus [5],0.2 °C
same,Behavioral score,Rattus norvegicus [6],6.1
same,Behavioral score,Rattus norvegicus [7],5.8
same,LLR score,Rattus norvegicus [8],0.1
same,Delta t,Mus musculus [9],0 °C
same,pKi,[10],7.82
same,Delta t,Mus musculus [11],0.2 °C
same,Delta t,Mus musculus [12],0.1 °C
same,Delta t,Mus musculus [13],0.1 °C
same,LLR score,Rattus norvegicus [14],1.1
same,Delta t,Mus musculus [15],0.3 °C
same,Delta t,Mus musculus [16],1.5 °C
same,Delta t,Mus musculus [17],0.7 °C
same,Delta t,Mus musculus [18],0.1 °C
same,Delta t,Mus musculus [19],0.2 °C
same,Behavioral score,Rattus norvegicus [20],14.8
same,Delta t,Mus musculus [21],1.1 °C
same,Delta t,Mus musculus [22],0.4 °C
same,Delta t,Mus musculus [23],0.2 °C
same,Selectivity,Rattus norvegicus [24],69
same,Delta t,Mus musculus [25],0.1 °C
same,LLR score,Rattus norvegicus [26],0.9
same,Delta t,Mus musculus [27],0 °C
same,Behavioral score,Rattus norvegicus [28],13.4
same,Delta t,Mus musculus [29],0.1 °C
same,Delta t,Mus musculus [30],0.3 °C
same,Delta t,Mus musculus [31],0.4 °C
same,Delta t,Mus musculus [32],0.2 °C
same,LLR score,Rattus norvegicus [33],0.7
same,Behavioral score,Rattus norvegicus [34],3.7
same,Delta t,Mus musculus [35],0.4 °C
same,Delta t,Mus musculus [36],0.1 °C
same,Ki,[37],1040 nM
same,LLR score,Rattus norvegicus [38],2.3
same,Delta t,Mus musculus [39],0 °C
